EP0450065A1, “ANTIVIRAL AGENT” (priority 1988, dated 1990)
Like-named read-outs stand apart in the source and are kept apart here.

Key:
Type in all cases: cell-based
[1] = system: herpes simplex virus type 1 (HF strain); assay: Control of CPE (cytopathic effect) manifestation in vero cells; details: 20 μg/ml, HSV-1 (HF strain), Example 5
Protocol: (§1) In vitro antiviral activity of Compound A against herpes simplex virus type 1 (HF strain) Compound A was tested for antiviral effect by the following two methods.
(§2) Vero cells cultured and grown in a monolayer on microplates to test for cytopathic effect due to viral infection, with solutions of Compound A diluted to varying ratios and solutions of virus diluted to varying ratios added severally thereto in a volume of 0.1 ml, were cultured under the conditions of 5% CO₂ and 37°C and were examined for CPE manifestation under a microscope. The observation was continued for five to six days.
(§3) The degree of CPE brought about by viral infection was rated on the five-point scale, wherein 3 stands for CPE observed on not less than 75% of cultured cells, 2 for CPE observed on 50% of cultured cells, 1 for CPE observed on 25% of cultured cells, 0.5 for occurrence of one to two extremely minute DPE spots, and 0 for perfect absence of recognizable CPE. The CPE scores obtained at the four holes in each microplate were averaged and the difference of the average from the average obtained in the control (omitting the treatment with a chemical) was reported as ΔCPE.
(§4) In vitro antiviral effect of Compound A against herpes simplex virus type 1 (HF strain) The test was carried out by following the procedure of Example 3.

[2] = system: herpes simplex virus type 1 (HF strain); assay: 50% Tissue culture infective dose (TCID50), Read-Munch method, negative logarithm of virus dilution
Protocol: as §1
(§5) The amount of virus infecting 50% of tissues (TCID₅₀) was determined by the Read-Munch method and expressed in negative logarithm of the maximum radio of dilution of virus. The difference of the amount thus determined from the amount found in the control (omitting the treatment with a chemical) was reported as ΔTCID₅₀. A sample whose ΔCPE's found on the last day of observation and on each of the days spent for the observation exceeded 1.0 was evaluated as effective.
as §4

[3] = system: herpes simplex virus type 2 (169 strain); assay: Control of CPE (cytopathic effect) manifestation in vero cells; details: 20 μg/ml, HSV-2 (169), Example 6
Protocol: as §2, §3
(§6) In vitro antiviral activity of Compound A against herpes simplex virus type 2 (169 strain) The test was carried out by following the procedure of Example 3.

[4] = system: herpes simplex virus type 2 (169 strain); assay: 50% Tissue culture infective dose (TCID50), Read-Munch method, negative logarithm of virus dilution; set-up: key to Cytopathic effect [CPE] (5days) △TCID50 / Cytopathic effect [CPE] (6days) △TCID50 / Cytopathic effect [CPE] (3days) △TCID50: difference in -log TCID50 from untreated control; details: HSV-2 (169), Example 6
Protocol: as §5, §6

[5] = system: herpes simplex virus type 1 (KOS strain); assay: Control of CPE (cytopathic effect) manifestation in vero cells; details: 30 μg/ml, HSV-1 (KOS), Example 7
Protocol: as §2, §3
(§7) Antiviral activity of Compound A and Compound B against herpes simplex virus type 1 (KOS strain) The test was carried out by following the procedure of Example 3.

[6] = system: herpes simplex virus type 1 (KOS strain); assay: 50% Tissue culture infective dose (TCID50), Read-Munch method, negative logarithm of virus dilution
Protocol: as §5, §7

[7] = system: herpes simplex virus type 1 (KOS strain); assay: One-step growth of virus, plaque assay with vero cells; details: 30 μg/ml, 24 hours; for log reduction at 30 µg/mL: 24 h, read-out: Intracellular virus Control ratio -logT/C
Protocol: Antiviral activity of Compound A and Compound B against one-step growth of herpes simplex virus type 1 (KOS strain) Cells grown in a monolayer, with a sample of a given compound diluted in a varying ratio added, were pretreated for 15 minutes. Then, the pretreated cells were infected with the herpes simplex virus type 1 (KOS strain) at an infecting ratio of 0.25 and left standing for 24 hours. At the end of the standing, the intracellular and extracellular amounts of virus were determined by the plaque assay with vero cells.

[8] = 20 μg/ml, HSV-1 (HF strain), Example 5
[9] = 30 μg/ml, HSV-1 (KOS), Example 7

Nc1ncnc2c1ncn2[C@@H]1O[C@H](CO)[C@@H](O)[C@@H]1O [Ara A, adenine arabinoside, reference compound]
Cytopathic effect [CPE] (3days) Average [1]: 2.5 | Cytopathic effect [CPE] (6days) Average [1]: 3.0 | Cytopathic effect [CPE] (3days) ΔCPE ([1]; difference from control): 0.25 | Cytopathic effect [CPE] (6days) ΔCPE ([1]; difference from control): 0 | Cytopathic effect [CPE] (3days) TCID50 [2, 8]: 6.5 | Cytopathic effect [CPE] (6days) TCID50 [2, 8]: 6.5 | Cytopathic effect [CPE] (6days) ΔTCID50 ([2]; 20 μg/ml, HSV-1 (HF strain), Example 5, difference from control): no discernible antiviral effect | log reduction at 20 µg/mL ([2]; Human alphaherpesvirus 1, 72 h, read-out: Cytopathic effect [CPE] (3days) ΔTCID50): -0.2 | log reduction at 20 µg/mL ([2]; Human alphaherpesvirus 1, 144 h, read-out: Cytopathic effect [CPE] (6days) ΔTCID50): -0.2 | Cytopathic effect [CPE] (3days) Average [3]: 0.5 | Cytopathic effect [CPE] (6days) Average [3]: 3.0 | Cytopathic effect [CPE] (3days) △CPE ([3]; difference from control): 1.0 | Cytopathic effect [CPE] (6days) △CPE ([3]; difference from control): 0 | Cytopathic effect [CPE] (3days) TCID50 ([4]; 20 μg/ml): 7.0 | Cytopathic effect [CPE] (6days) TCID50 ([4]; 20 μg/ml): 7.5 | Cytopathic effect [CPE] (6days) △TCID50 ([4]; 20 μg/ml, difference from control): nil | log reduction at 20 µg/mL ([4]; Human alphaherpesvirus 2, 72 h, read-out: Cytopathic effect [CPE] (3days) △TCID50, 20 μg/ml, difference from control): -0.3 | log reduction at 20 µg/mL ([4]; Human alphaherpesvirus 2, 144 h, read-out: Cytopathic effect [CPE] (6days) △TCID50, 20 μg/ml, difference from control): -0.8 | Cytopathic effect [CPE] (3days) Average [5]: 1.0 | Cytopathic effect [CPE] (5days) Average [5]: 2.0 | Cytopathic effect [CPE] (3days) △CPE ([5]; difference from control): 1.0 | Cytopathic effect [CPE] (5days) △CPE ([5]; difference from control): 1.0 | Cytopathic effect [CPE] (3days) TCID50 [6, 9]: 5.0 | Cytopathic effect [CPE] (5days) TCID50 [6, 9]: 5.7 | log reduction at 30 µg/mL ([6]; Human alphaherpesvirus 1, 72 h, read-out: Cytopathic effect [CPE] (3days) △TCID50): 0.5 | log reduction at 30 µg/mL ([6]; Human alphaherpesvirus 1, 120 h, read-out: Cytopathic effect [CPE] (5days) △TCID50): 0.3 | Intracellular virus Average ([7]; extracellular virus): 3.93×10^3 /dish | Intracellular virus Average [7]: 7.38×10^4 /dish | log reduction at 30 µg/mL ([7]; Human alphaherpesvirus 1, Vero, extracellular virus): 3.88 | log reduction at 30 µg/mL ([7]; Human alphaherpesvirus 1, Vero): 4.74 | inhibition at 30 µg/mL ([7]; Human alphaherpesvirus 1, Vero, read-out: Intracellular virus Control ratio %): > 99.9%
